ChEMBL document CHEMBL4371034, “Design, synthesis, biological evaluation, structure-activity relationship, and toxicity of clinafloxacin-azole conjugates as novel antitubercular agents” (Bioorg Med Chem, 2019)
Values after ≈ are worked out from the molar mass of the structure shown.

How the values were obtained:
[1] = biological target: Voltage-gated inwardly rectifying potassium channel KCNH2 (Homo sapiens, UniProt Q12809); experiment: Inhibition of human ERG
Escherichia coli [2] = experiment: Antibacterial activity against duck Escherichia coli clinical isolates measured after 120 days of sample dissolution by serial dilution method; format: functional
Staphylococcus aureus [3] = experiment: Antibacterial activity against Staphylococcus aureus ATCC 29213 measured after 120 days of sample dissolution by serial dilution method; format: functional
[4] = system: Mycobacterium tuberculosis; experiment: Antitubercular activity against Mycobacterium tuberculosis H37Rv after 6 days by […]; format: functional; conditions: 144 h
Pseudomonas aeruginosa [5] = experiment: Antibacterial activity against Pseudomonas aeruginosa PS1.0050 assessed as diameter of zone of inhibition at 80 ug/ml after 18 hrs by agar diffusion method; format: functional; conditions: PS1.0050, 18 h, read-out: DIZ
[6] = Cytotoxicity against human HeLa cells assessed as growth inhibition at 20 uM by Celltiter-Glo luminescence assay; format: cell-based; conditions: read-out: GI
Salmonella [7] = experiment: Antibacterial activity against Salmonella S1.1152 measured after 120 days of sample dissolution by serial dilution method; format: functional
Escherichia coli [8] = experiment: Antibacterial activity against duck Escherichia coli clinical isolates assessed as diameter of zone of inhibition at 80 ug/ml after 18 hrs by agar diffusion method; format: functional; conditions: read-out: DIZ
[9] = system: Mycobacterium tuberculosis; experiment: Antitubercular activity against Mycobacterium tuberculosis H37Rv assessed as growth inhibition at 20 uM after 6 days by […]; format: functional; conditions: 144 h, read-out: GI
Salmonella [10] = experiment: Antibacterial activity against Salmonella S1.1152 assessed as diameter of zone of inhibition at 80 ug/ml after 18 hrs by agar diffusion method; format: functional; conditions: S1.1152, 18 h, read-out: DIZ
Pseudomonas aeruginosa [11] = experiment: Antibacterial activity against Pseudomonas aeruginosa PS1.0050 measured after 120 days of sample dissolution by serial dilution method; format: functional
Staphylococcus aureus [12] = experiment: Antibacterial activity against Staphylococcus aureus ATCC 29213 assessed as diameter of zone of inhibition at 80 ug/ml after 18 hrs by agar diffusion method; format: functional; conditions: ATCC 29213, 18 h, read-out: DIZ

Sequence of Voltage-gated inwardly rectifying potassium channel KCNH2 (Q12809 whole entry): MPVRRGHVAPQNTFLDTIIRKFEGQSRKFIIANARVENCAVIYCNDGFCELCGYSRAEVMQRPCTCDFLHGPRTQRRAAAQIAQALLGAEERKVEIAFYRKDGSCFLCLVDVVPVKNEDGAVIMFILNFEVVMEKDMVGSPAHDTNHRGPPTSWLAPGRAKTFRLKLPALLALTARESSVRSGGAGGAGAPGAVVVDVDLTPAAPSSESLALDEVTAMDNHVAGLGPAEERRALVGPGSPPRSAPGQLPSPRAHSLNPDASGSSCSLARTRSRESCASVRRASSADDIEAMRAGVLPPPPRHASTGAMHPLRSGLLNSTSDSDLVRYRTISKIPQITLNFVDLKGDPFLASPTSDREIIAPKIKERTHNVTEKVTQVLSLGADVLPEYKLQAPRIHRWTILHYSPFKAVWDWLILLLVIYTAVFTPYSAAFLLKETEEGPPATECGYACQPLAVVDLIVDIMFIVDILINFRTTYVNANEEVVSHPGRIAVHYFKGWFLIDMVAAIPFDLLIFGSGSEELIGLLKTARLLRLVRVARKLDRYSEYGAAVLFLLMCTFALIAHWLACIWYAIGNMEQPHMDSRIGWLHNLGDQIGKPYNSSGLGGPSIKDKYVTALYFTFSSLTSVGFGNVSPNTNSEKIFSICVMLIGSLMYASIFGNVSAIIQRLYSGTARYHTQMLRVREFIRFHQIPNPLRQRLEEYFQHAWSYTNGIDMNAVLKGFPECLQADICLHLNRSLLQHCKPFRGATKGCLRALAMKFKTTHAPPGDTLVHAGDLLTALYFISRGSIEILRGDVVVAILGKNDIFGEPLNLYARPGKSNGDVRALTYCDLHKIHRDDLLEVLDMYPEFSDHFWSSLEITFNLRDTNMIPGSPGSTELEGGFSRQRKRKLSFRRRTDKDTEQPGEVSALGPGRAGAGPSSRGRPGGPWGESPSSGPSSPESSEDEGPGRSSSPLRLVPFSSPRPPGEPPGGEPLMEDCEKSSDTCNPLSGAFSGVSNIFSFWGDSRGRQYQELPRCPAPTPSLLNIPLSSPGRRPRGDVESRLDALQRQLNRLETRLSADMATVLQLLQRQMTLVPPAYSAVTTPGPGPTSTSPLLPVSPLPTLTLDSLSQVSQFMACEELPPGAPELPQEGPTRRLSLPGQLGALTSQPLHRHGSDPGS

Row | Compound | IC50 [1] [µM] | also measured
1 | O=C(Cn1ccnc1)NC1CCN(c2c(F)cc3c(=O)c(C(=O)O)cn(C4CC4)c3c2Cl)C1 (stereo not drawn) | > 1 | –
2 | O=C(CCn1cnc2ccccc21)NC1CCN(c2c(F)cc3c(=O)c(C(=O)O)cn(C4CC4)c3c2Cl)C1 (stereo not drawn) | > 1 | –
3 | O=C(CSc1nc2ccccc2[nH]1)NC1CCN(c2c(F)cc3c(=O)c(C(=O)O)cn(C4CC4)c3c2Cl)C1 (stereo not drawn) | > 1 | –
4 | Cc1nnn(CC(=O)NC2CCN(c3c(F)cc4c(=O)c(C(=O)O)cn(C5CC5)c4c3Cl)C2)n1 (stereo not drawn) | > 1 | –
5 | Nc1ccn(CC(=O)NC2CCN(c3c(F)cc4c(=O)c(C(=O)O)cn(C5CC5)c4c3Cl)C2)n1 (stereo not drawn) | > 1 | MIC (Escherichia coli [2]): > 16 µg/mL; MIC (Staphylococcus aureus [3]): 16 µg/mL (≈ 32.7 µM); MIC [4]: 1.69 µM (≈ 0.826 µg/mL); zone of inhibition at 80 µg/mL (Pseudomonas aeruginosa [5]): 25 mm; inhibition at 20 µM [6]: -17.1%; MIC (Salmonella [7]): 16 µg/mL (≈ 32.7 µM); zone of inhibition at 80 µg/mL (Escherichia coli [8]): 23 mm; inhibition of growth at 20 µM [9]: 98.5%; zone of inhibition at 80 µg/mL (Salmonella [10]): 23 mm; MIC (Pseudomonas aeruginosa [11]): 2 µg/mL (≈ 4.09 µM); zone of inhibition at 80 µg/mL (Staphylococcus aureus [12]): 23 mm
6 | O=C(Cn1cnnn1)NC1CCN(c2c(F)cc3c(=O)c(C(=O)O)cn(C4CC4)c3c2Cl)C1 (stereo not drawn) | > 1 | –
7 | O=C(Cn1nccn1)NC1CCN(c2c(F)cc3c(=O)c(C(=O)O)cn(C4CC4)c3c2Cl)C1 (stereo not drawn) | > 1 | –
8 | Cc1nnnn1CC(=O)NC1CCN(c2c(F)cc3c(=O)c(C(=O)O)cn(C4CC4)c3c2Cl)C1 (stereo not drawn) | > 1 | –
9 | O=C(Cn1nnc2ccccc21)NC1CCN(c2c(F)cc3c(=O)c(C(=O)O)cn(C4CC4)c3c2Cl)C1 (stereo not drawn) | > 1 | –
10 | Cc1nccn1CCC(=O)NC1CCN(c2c(F)cc3c(=O)c(C(=O)O)cn(C4CC4)c3c2Cl)C1 (stereo not drawn) | > 1 | –
11 | Cc1cc(C)n(CCC(=O)NC2CCN(c3c(F)cc4c(=O)c(C(=O)O)cn(C5CC5)c4c3Cl)C2)n1 (stereo not drawn) | > 1 | –
12 | O=C(CCn1ccnc1)NC1CCN(c2c(F)cc3c(=O)c(C(=O)O)cn(C4CC4)c3c2Cl)C1 (stereo not drawn) | > 1 | –
13 | Cc1nnn(CCC(=O)NC2CCN(c3c(F)cc4c(=O)c(C(=O)O)cn(C5CC5)c4c3Cl)C2)n1 (stereo not drawn) | > 1 | –
14 | Cn1nnc(SCC(=O)NC2CCN(c3c(F)cc4c(=O)c(C(=O)O)cn(C5CC5)c4c3Cl)C2)n1 (stereo not drawn) | > 1 | –
15 | O=C(Cn1cnc2ccccc21)NC1CCN(c2c(F)cc3c(=O)c(C(=O)O)cn(C4CC4)c3c2Cl)C1 (stereo not drawn) | > 1 | –
16 | COc1ccc2[nH]c(SCC(=O)NC3CCN(c4c(F)cc5c(=O)c(C(=O)O)cn(C6CC6)c5c4Cl)C3)nc2c1 (stereo not drawn) | > 1 | –
17 | O=C(CCn1cncn1)NC1CCN(c2c(F)cc3c(=O)c(C(=O)O)cn(C4CC4)c3c2Cl)C1 (stereo not drawn) | > 1 | –
